Laboratory results reported in US5510261A, “Method of controlling the degradation of glycoprotein oligosaccharides produced by cultured Chinese hamster ovary cells” (The Board of Trustees of the Leland Stanford Juniot …, priority 1995, dated 1996).

System: neuraminidase present in CHO cell supernatant
Assay: Inhibition of CHO neuraminidase activity, 4MU-NANA artificial substrate assay
Assay type: biochemical, Chinese hamster
Description: The artificial substrate 2'-(4-methylumbelliferyl)-α-D-N-acetylneuraminic acid (4MU-NANA) was used to assay for neuraminidase activity (modified from Potier et al., Anal. Biochem., 1979, 94, 287). The standard assay for lysate neuraminidase activity contained 0.1M sodium acetate (pH 3-6) or potassium phosphate (pH 6-8) buffer (10 μl of 1 M stock), 1 mM 4MU-NANA (25 μl from a 4 mM aliquot), and the lysate of 0.25 million cells ([…]) in a total volume of 100 μl. Supernatant samples were assayed identically, with supernatant replacing the added cell lysate. The 100 μl samples in plastic 1.5 ml tubes were placed in a 37° C. water bath with a shaker for 30 minutes (sometimes 60 minutes), and the reaction was stopped with 0.9 ml of 0.2M glycine (pH 10.4). […] An HP 1090 Series II HPLC coupled to an HP 1046A flow through fluorescence detector (Hewlett-Packard) was used for automated sample injection and analysis (no column). […] The fluorescence was integrated vs. time and compared to standard 4-methylumbelliferyl dilutions. […]
Aliquots of previously frozen and disrupted cells were thawed to 37° C. and assayed for neuraminidase activity as in the standard assay except the 4MU-NANA concentration varied at 0.1, 0.2, 0.4, 1 and 2 mM (pH 4.5, 5.5, 6.5 and 7.5). […] Kinetic parameters were determined by fitting an integrated form of the Michaelis-Menton equation: […]

| Compound | inhibition of the neuraminidase present in CHO cell supernatant |
| --- | --- |
| CC(=O)N[C@H]1[C@H]([C@H](O)[C@H](O)CO)OC(C(=O)O)=C[C@@H]1O [2,3-D, 2,3-dehydro-2-deoxy-N-acetylneuraminic acid] | shown to inhibit |
| CC(=O)N[C@H]1[C@H]([C@H](O)[C@H](O)CO)OC(O)(C(=O)O)C[C@@H]1O (some centres unmarked) [NANA, N-acetylneuraminicacid] | shown to inhibit |
